Source: patent publication USRE35281E, “Tetrazole derivatives and aldose reductase inhibition therewith” (Wakamoto Pharmaceutical Co., Ltd., priority 1989, dated 1996)

Assays:
[1] = target: T1, aldose reductase (Rattus norvegicus, UniProt P07943); experiment: Aldose Reductase Inhibition Test (Experiment 1); assay type: biochemical, rat (male SD rat crystalline lens); conditions: DL-glycerine aldehyde 10 mM, pH 6.2, 30° C., 5 min; for inhibition at 50 µM: final concentration 5×10^-5 M (values without asterisk); for inhibition at 1 µM: *Concentration of 10^-6 M
T1 construct: their crystalline lenses were immediately removed and stored at -80° C; The lenses were homogenized; from tissue; host or cells: crystalline lens of six-week-old male SD rats (homogenate supernatant, dialysed)
Method: (§1) Six-week-old male SD rats were killed under ether anesthesia and their crystalline lenses were immediately removed and stored at -80° C. The lenses were homogenized in 3 volumes of 135 mM sodium potassium phosphate buffer (pH: 7.0) and centrifuged at a rate of 30,000 rpm for 30 min. The supernatant was dialyzed overnight against 0.05M sodium chloride, to produce an aldose reductase solution. All operations were conducted at 4° C. The enzyme solution was stored at -80° C.
(§2) The activity of aldose reductase was determined according to a slight modification of the method of J. H. Kinoshita et al [J. Biol. Chem., 240, 877 (1965)]. Namely, 0.1 ml of DL-glycerine aldehyde (final concentration: 10 mM) was added to 0.9 ml of 100 mM sodium potassium phosphate buffer (pH 6.2) which contained lithium sulfate (final concentration: 400 mM), reduced nicotinamide adenine dinucleotide phosphate (final concentration: 0.15 mM), the enzyme solution, and the compound to be tested (final concentration: 5×10^-5 M or 10^-6 M), and then the reaction was conducted at 30° C. for 5 min. […] The maximum reducing rate of the absorbance (U) during the reaction was determined. By substracting, from this value, the maximum reducing rate (Uo) at 340 nm of the reaction solution before the addition of the substrate (DL-glycerine aldehyde), the reaction rate (V) (V=U-Uo) was calculated as a true reaction rate in the presence of the compound to be tested.
(§3) The same procedure was repeated except for the absence of the compound to be tested. A true reaction rate (Vo) in case the enzyme was not inhibited was calculated (Vo =U'-Uo '). The inhibitory activity of aldose reductase was determined by the following formula. [formula]

[2] = target: T1, aldose reductase; experiment: Aldose reductase inhibition, IC50 determination (Experiment 2); assay type: biochemical, rat (male SD rat crystalline lens); conditions: calculated from inhibitions at three final concentrations; DL-glycerine aldehyde 10 mM, pH 6.2, 30° C.
Method: as §1, with “The lenses were homogenized in 3 volumes of 135 mM sodium potassium phosphate buffer (pH: 7.0) and centrifuged at a rate of 30,000 rpm for 30 min.” left out
as §2, with “Namely,” for “The activity of aldose reductase was determined according to a slight modification of the method of J. H. Kinoshita et al [J. Biol. Chem., 240, 877 (1965)]. Namely,”
as §3
In the same manner as Experiment 1, the inhibitions at final concentrations of 10^-6, 10^-7 and […] for the compound to be tested were calculated.

Row | Compound | inhibition at 50 µM [1] [%] | inhibition at 1 µM [1] [%] | IC50 [2] [µM]
1 | CCOC(=O)C(=O)Nc1cc(-c2nnn[nH]2)cc(NC(=O)C(=O)OCC)c1Cl [Compound 4-3, 5-(4-Chloro-3,5-diethyloxalylaminophenyl)tetrazole] | 95 |  | 
2 | COC(=O)Cn1nnnc1-c1ccc(OC)cc1 [Compound 1-8, Methyl 5-(4-methoxyphenyl)-1-tetrazoleacetate] | 43 |  | 
3 | CCCCCCCc1ccc(-c2nnnn2CC(=O)O)cc1 [Compound 3-24, 5-(4-n-Heptylphenyl)-1-tetrazoleacetic acid] |  | 96 | 0.017
4 | COC(=O)Cn1nnnc1-c1ccc(-c2nnnn2CC(=O)OC)cc1 [Compound 2-10, 1,4-Bis(1-methoxycarbonylmethyl-tetrazol-5-yl)benzene] | 36 |  | 
5 | CCCCOC(=O)Cn1nnnc1-c1ccccc1 [Compound 1-4, n-Butyl 5-phenyl-1-tetrazoleacetate] | 63 |  | 
6 | COc1ccc(-c2nnnn2CC(=O)O)cc1 [Compound 3-7, 5-(4-Methoxyphenyl)-1-tetrazoleacetic acid] |  | 95 | 0.048
7 | CCCCc1ccc(-c2nnnn2CC(=O)O)cc1 [Compound 3-14, 5-(4-n-Butylphenyl)-1-tetrazoleacetic acid] |  |  | 0.017
8 | O=C(O)Cn1nnnc1-c1ccc(F)cc1 [Compound 3-3, 5-(4-Fluorophenyl)-1-tetrazoleacetic acid] |  | 94 | 0.042
9 | O=C(O)Cn1nnnc1-c1ccc(C(=O)O)cc1 [Compound 3-37, 5-(4-Carboxyphenyl)-1-tetrazoleacetic acid] |  |  | 0.082
10 | COc1ccc(-c2nnnn2CC(=O)O)cc1OC [Compound 3-34, 5-(3,4-Dimethoxyphenyl)-1-tetrazoleacetic acid] |  |  | 0.063
11 | COC(=O)Cn1nnnc1-c1ccccc1 [Compound 1-1, methyl 5-phenyl-1-tetrazoleacetate] | 92 |  | 
12 | CCCCOc1ccc(-c2nnnn2CC(=O)O)cc1OCCCC [Compound 3-35, 5-(3,4-Di-n-butoxyphenyl)-1-tetrazoleacetic acid] |  |  | 0.033
13 | CCCCOC(=O)C(=O)Nc1cc(-c2nnn[nH]2)cc(NC(=O)C(=O)OCCCC)c1Cl [Compound 4-4, 5-(4-Chloro-3,5-di-n-butyloxalylaminophenyl)tetrazole] | 92 |  | 
14 | CCCCNS(=O)(=O)c1ccc(-c2nnnn2CC(=O)O)cc1 [Compound 3-45, 5-(4-n-Butylaminosulfonylphenyl)-1-tetrazoleacetic acid] |  |  | 0.078
15 | COC(=O)Cn1nnnc1-c1ccc(Cl)cc1 [Compound 2-1, Methyl 5-(4-chlorophenyl)-1-tetrazoleacetate] | 31 |  | 
16 | CC(C)(C)c1ccc(-c2nnnn2CC(=O)O)cc1 [Compound 3-26, 5-(4-t-Butylphenyl)-1-tetrazoleacetic acid] |  | 94 | 0.027
17 | CCCN(CCC)C(=O)c1ccc(-c2nnnn2CC(=O)O)cc1 [Compound 3-39, 5-(4-Di-n-propylaminocarbonylphenyl)-1-tetrazoleacetic acid] |  |  | 0.073
18 | CCCCOC(=O)C(=O)Nc1cccc(-c2nnnn2CC(=O)OCC)c1 [Compound 2-8, Butyl 3'-(1-ethoxycarbonylmethyl-tetrazol-5-yl)oxanilate] | 52 |  | 
19 | COc1cccc(-c2nnnn2CC(=O)O)c1 [Compound 3-33, 5-(3-Methoxyphenyl)-1-tetrazoteacetic acid] |  |  | 0.028
20 | O=C(O)Cn1nnnc1-c1ccc(Oc2ccccc2)cc1 [Compound 3-25, 5-(4-Phenoxyphenyl)-1-tetrazoteacetic acid] |  | 94 | 0.028
21 | O=C(O)Cn1nnnc1-c1ccc(Cl)c([N+](=O)[O-])c1 [Compound 3-2, 5-(3-Nitro-4-chlorophenyl)-1-tetrazoleacetic acid] |  | 84 | 
22 | O=C(O)C(=O)Nc1cccc(-c2nnn[nH]2)c1 [Compound 5-1, 3-(1H-Tetrazol-5-yl)oxanilic acid] | 63 |  | 

Row | Compound | inhibition at 50 µM [1] [%] | inhibition at 1 µM [1] [%] | IC50 [2] [µM]
23 | O=C(O)Cn1nnnc1-c1ccc(Cl)cc1 [Compound 3-10, 5-(4-Chlorophenyl)-1-tetrazoleacetic acid] |  | 85 | 
24 | Cc1cccc(-c2nnnn2CC(=O)O)c1 [Compound 3-5, 5-(3-Methylphenyl)-1-tetrazoleacetic acid] |  | 96 | 0.033
25 | O=C(O)CCCn1nnnc1-c1ccccc1 [Compound 3-16, 4-(5-Phenyltetrazol-1-yl)buatyric acid] | 79 |  | 
26 | CCCCOc1ccc(-c2nnnn2CC(=O)O)cc1 [Compound 3-27, 5-(4-n-Butoxyphenyl)-1-tetrazoleacetic acid] |  | 96 | 0.018
27 | COC(=O)Cn1nnnc1-c1cccc(C)c1 [Compound 1-6, Methyl 5-(3-methylphenyl)-1-tetrazoleacetate] | 44 |  | 
28 | O=C(O)Cn1nnnc1-c1ccc(-c2nnnn2CC(=O)O)cc1 [Compound 3-13, 1,4-Bis(1-carboxymethyl-tetrazol-5-yl)benzene] | 94 |  | 0.027
29 | O=C(O)Cn1nnnc1-c1ccc(-c2ccccc2)cc1 [Compound 3-23, 5-(4-Biphenylyl)-1-tetrazoleacetic acid] |  | 95 | 0.022
30 | O=C(O)Cn1nnnc1-c1ccc(O)cc1 [Compound 3-31, 5-(4-Hydroxyphenyl)-1-tetrazoleacetic acid] |  |  | 0.043
31 | Cc1ccc(-c2nnnn2CC(=O)O)cc1[N+](=O)[O-] [Compound 3-11, 5-(3-Nitro-4-methylphenyl)-1-tetrazoleacetic acid] |  | 92 | 0.042
32 | COC(=O)Cn1nnnc1-c1ccc([N+](=O)[O-])cc1 [Compound 2-5, Methyl 5-(4-nitrophenyl)-1-tetrazoleacetate] | 44 |  | 
33 | CCCCOC(=O)C(=O)Nc1cccc(-c2nnn[nH]2)c1 [Compound 4-1, 5-(3-n-Butyloxalylaminophenyl)tetrazole] | 58 |  | 
34 | O=C(O)CCCCn1nnnc1-c1ccccc1 [Compound 3-17, 5-(5-Phenyltetrazol-1-yl)valeric acid] | 68 |  | 
35 | COC(=O)Cn1nnnc1-c1ccc(Cl)c([N+](=O)[O-])c1 [Compound 2-6, Methyl 5-(3-nitro-4-chlorophenyl)-1-tetrazoleacetate] | 42 |  | 
36 | Nc1ccc(-c2nnnn2CC(=O)O)cc1 [Compound 3-40, 5-(4-Aminophenyl)-1-tetrazoleacetic acid] |  |  | 0.041
37 | CCCCCCCOc1ccc(-c2nnnn2CC(=O)O)cc1 [Compound 3-32, 5-(4-n-Heptoxyphenyl)-1-tetrazoleacetic acid] |  |  | 0.029
38 | CSc1ccc(-c2nnnn2CC(=O)O)cc1 [Compound 3-42, 5-(4-Methylthiophenyl)-1-tetrazoleacetic acid] |  |  | 0.037
39 | O=C(O)Cn1nnnc1-c1ccc(C(=O)N2CCCCC2)cc1 [Compound 3-38, 5-(4-Piperidinocarbonylphenyl)-1-tetrazoleacetic acid] |  |  | 0.054
40 | CC(C(=O)O)n1nnnc1-c1ccccc1 (stereo not drawn) [Compound 3-18, 2-(5-Phenyltetrazol-1-yl)propionic acid] | 91 |  | 
41 | CCCCOC(=O)C(=O)Nc1ccccc1-c1nnn[nH]1 [Compound 4-2, 5-(2-n-Butyloxalylaminophenyl)tetrazole] | 69 |  | 
42 | O=C(O)CCn1nnnc1-c1ccccc1 [Compound 3-15, 3-(5-Phenyltetrazol-1-yl)propionic acid] | 80 |  | 
43 | O=C(O)Cn1nnnc1-c1ccc(CBr)cc1 [Compound 3-41, 5-(4-Bromomethylphenyl)-1-tetrazoleacetic acid] |  |  | 0.02
44 | COC(=O)Cn1nnnc1-c1cccc([N+](=O)[O-])c1 [Compound 2-4, Methyl 5-(3-nitrophenyl)-1-tetrazoleacetate] | 30 |  | 
